Measured values: patent publication US8097238B2, “Cell targeting conjugates” (Peter MacCallum Cancer Institute, priority 2004, dated 2012)
Where “and” joins values, the source holds several entries; their conditions need not be identical. Equal entries are not always repeated.

Experiments:
plasmid DNA = experiment: Plasmid DNA breakage, ^123I/^125I double isotope method; assay type: biochemical
Source text: The experimental design exploits the plasmid DNA assay system, and agarose gel electrophoresis, as described previously to evaluate DNA breakage by the labelled minor groove binding DNA ligand, ^125I-iodoHoechst 33258 (Lobachevsky, Karagiannis and Martin 2004).
The accumulation of DNA single-stranded breaks and DNA double-stranded breaks is monitored by quantitation of the decline in the fraction of intact supercoiled plasmid (S), and the corresponding increase in the fractions of relaxed (R) and linear (L) species, with the progressive accumulation of decay events. Various assumptions enable the derivation of the relationship between the parameters S, R and L (or their normalised counterparts S′, R′ and L′), the number of decay events (n), and for example, the yield of double-stranded breaks per decay (d) of isotope in DNA-bound ligand. […] Accordingly, a double isotope strategy was developed, using a mixture of ^123I- and ^125I-iodoHoechst 33258. This approach yields a ratio d values, providing an estimate of the relative efficiency (^123I relative to ^125I) for double-strand breaks per decay, which is independent of f.
The basis of the double isotope method is apparent from the following relationship:
Where n1 is the number of ^123I decays, and n1m is the maximum (ie at time=infinity) number of ^123I decays.
A plot of the LHS term of the above equation versus n2 (the number of ^125I decay events in the incubation mixture) yields a two phase curve, the 2nd phase of which approaches a straight line (when n1=n1m). The values for the apparent breakage DNA dsb efficiency of ^123I and ^125I decays (da1 and da2, respectively) are obtained from the y intercept and from the gradient of the asymptote of the second phase of the curve, as shown in FIG. 14.
The apparent breakage efficiency is related to the actual efficiency of DNA-bound decay events, d, by the expression: da=df+δA
Where δA is the term for the “external” component of damage, arising from decay of non-DNA-bound isotope, which can be ignored because of the particular conditions of the
[formula] experiment, particularly, a low DNA concentration, A. Thus analysis of the data as exemplified in FIG. 14 provides the ratio of breakage efficiencies of ^123I versus ^125I decays.

K562 cells = experiment: K562 cell survival after incubation with labelled iodoHoechst 33258; assay type: cell-based, human; details: 500 nM for 1 hour at 37° C., decays accumulated at 5° C. for 24 hours
Protocol: Cells (5×10^5/ml) in RPMI-1640 medium containing 10% FBS and gentamicin were incubated with varying specific activities of ^127I/^123I-iodoHoechst 33258 (500 nM) for 1 hour at 37° C. Following incubation the cells were separated from the supernatant by 3 centrifugation (400×g for 3 minutes)-wash cycles. The cell pellets were suspended in RPMI medium and ^123I-decays were accumulated at 5° C. for 24 hours. Following accumulation of decays, the cell-pellets were isolated by centrifugation at 400×g for 3 minutes, suspended in AMEM containing 20% FBS and an appropriate cell number from each of the samples was cloned in semi-solid (0.33% (w/v)) noble agar in 6-well microtiter plates, as discussed above.

CN1CCN(c2ccc3nc(-c4ccc5nc(-c6ccc(O)c(I)c6)[nH]c5c4)[nH]c3c2)CC1 [^123I-iodoHoechst 33258]
da1(^123I), apparent DNA dsb breakage efficiency (plasmid DNA; DMSO added to 10% (D series)): 0.158 and 0.170 and 0.159
da1(^123I)/da2(^125I) (plasmid DNA; DMSO added to 10% (D series)): 0.63 and 0.69 and 0.62
Average da1(^123I)/da2(^125I) (plasmid DNA; DMSO added to 10% (D series), samples D1.2-D3.2): 0.65 ± 0.03
da1(^123I), apparent DNA dsb breakage efficiency (plasmid DNA; aqueous buffer (N series)): 0.244 and 0.253 and 0.314
da1(^123I)/da2(^125I) (plasmid DNA; aqueous buffer (N series)): 0.59 and 0.64 and 0.66
Average da1(^123I)/da2(^125I) (plasmid DNA; aqueous buffer (N series), samples N1.2-N3.2): 0.63 ± 0.03
decays required for a lethal event (K562 cells): about 230 ^123I-decays per cell
